Results published in patent publication US20250002470A1, “NITROGEN-CONTAINING COMPOUND, PREPARATION METHOD THEREFOR AND APPLICATION THEREOF” (ZHEJIANG AIXPLORER BIOTECH CO., LTD., priority 2021, published 2025).

These compounds were tested against T1, NLRP3 (Homo sapiens, UniProt Q96P20) (assay: IL-1β (interleukin-1β) secretion in IFN-γ-differentiated, LPS/ATP-stimulated THP-1 cells (half inhibition rate of NLRP3)). Conditions: IFN-γ 25 ng/mL, LPS 50 ng/mL, ATP 5 mM.
T1 construct: endogenous in cells; host or cells: THP-1 cells (IFN-γ differentiated, LPS primed, ATP stimulated)
Assay type: cell-based
Procedure: Remove THP-1 cells from liquid nitrogen and place in a 37° C. water bath until ice melt. Add the cells to 5 mL of warm cell culture medium and centrifuge at 1,000 rpm for 5 min. Discard the supernatant and resuspend and culture in a new cell culture medium.
THP-1 cells are cultured in the culture medium and passaged every 2-3 days.
2.1.1 Add 100 μL of cell suspension per well to the cell plate and incubate the cell plate in a 37° C., 5% CO2 incubator for 24 hours.
2.2.1 Discard the supernatant of IFN-γ differentiation after differentiation treatment. Add 100 μL of serum-free medium containing LPS (final concentration of 50 ng/mL) to the cell plate. The cell plates were incubated in a 37° C., 5% CO2 incubator for 4 h.
Place the cell plate in an incubator at 37° C. and 5% CO2 for 1 hour.
2.2.3 Add 20 μL of 6×ATP per well according to the plate map (final concentration 5 mM) and incubate the cell plate in a 37° C., 5% CO2 incubator for 1 h. Collect the supernatant (60 μL) and store at −20° C.
The capture antibody mAb Mt175 is diluted to 2 μg/mL with PBS (1:250) and added to the cell plate at 15 μL per well. Keep the plate overnight at 4° C.
2.4.1 Discard the coated antibody and wash 4 times with PBST.
2.4.3 Discard the blocking buffer and wash 4 times with PBST.
2.4.4 Add 25 μL of 2.2.3 collected supernatant sample per well and incubate for 2 h at room temperature.
2.4.5 Discard the samples and wash 4 times with PBST.
2.4.6 Add mAb7P10-biotin (concentration 0.5 ug/mL) to blocking buffer, add 15 μL per well to the cell plate, and incubate for 1 hour at room temperature.
2.4.7 Discard the antibody and wash 4 times with PBST.
2.4.8 Streptavidin-HRP was diluted 1:1000 in blocking buffer, 15 μL per well was added to the cell plate, and incubated for 1 hour at room temperature.
2.4.9 Discard streptavidin-HRP and wash 4 times with PBST.
2.4.10 Add 25 μL of HRP substrate (Surmodics-TMBW-0100-01) per well and incubate the cell plate until a blue product appears.
2.4.11 Add 25 μL of stop solution (Surmodics-LSTP-0100-01) per well, and the blue product turns yellow.
2.4.12 Read the cell plate at 450 nm with a microplate reader.

T1 sequence (Q96P20 whole entry): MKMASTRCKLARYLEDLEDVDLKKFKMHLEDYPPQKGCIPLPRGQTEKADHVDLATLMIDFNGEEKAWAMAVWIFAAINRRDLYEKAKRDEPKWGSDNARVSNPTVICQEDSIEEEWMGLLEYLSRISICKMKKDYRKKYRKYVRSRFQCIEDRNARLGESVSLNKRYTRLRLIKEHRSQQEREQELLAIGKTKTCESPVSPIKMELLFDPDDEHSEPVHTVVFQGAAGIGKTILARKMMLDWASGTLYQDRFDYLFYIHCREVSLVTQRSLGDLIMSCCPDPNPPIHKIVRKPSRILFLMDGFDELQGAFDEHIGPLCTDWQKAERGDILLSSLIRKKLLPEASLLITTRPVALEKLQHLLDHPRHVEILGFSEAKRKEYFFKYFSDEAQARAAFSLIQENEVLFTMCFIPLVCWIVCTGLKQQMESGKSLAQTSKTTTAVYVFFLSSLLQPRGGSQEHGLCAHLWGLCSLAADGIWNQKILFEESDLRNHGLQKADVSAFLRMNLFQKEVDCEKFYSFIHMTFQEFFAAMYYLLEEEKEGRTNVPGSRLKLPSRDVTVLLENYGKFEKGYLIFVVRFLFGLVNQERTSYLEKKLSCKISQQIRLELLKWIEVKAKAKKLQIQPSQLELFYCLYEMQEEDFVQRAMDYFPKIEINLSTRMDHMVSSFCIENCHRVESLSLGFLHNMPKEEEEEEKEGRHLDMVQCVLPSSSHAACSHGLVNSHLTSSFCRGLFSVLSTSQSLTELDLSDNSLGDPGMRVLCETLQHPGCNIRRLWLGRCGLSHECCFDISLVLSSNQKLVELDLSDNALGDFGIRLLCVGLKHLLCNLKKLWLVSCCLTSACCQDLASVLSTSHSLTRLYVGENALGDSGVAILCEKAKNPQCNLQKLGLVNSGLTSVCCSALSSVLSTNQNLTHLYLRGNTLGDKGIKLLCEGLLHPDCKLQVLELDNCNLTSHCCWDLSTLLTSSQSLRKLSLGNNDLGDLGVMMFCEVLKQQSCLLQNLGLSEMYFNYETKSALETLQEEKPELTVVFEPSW

| SMILES | IC50 |
| --- | --- |
| Cc1cc(C)c(-c2cnc(N[C@@H]3CCCN(CC(=O)O)C3)nn2)c(O)c1 [Embodiment 3, (R)-2-(3-((6-(2-hydroxy-4,6-dimethylphenyl)-1,2,4-triazin-3-yl)amino)piperidin-1-yl)acetic acid] | 53.5 nM |
| Cc1nc(N[C@@H]2CCCN(C)C2)nnc1-c1ccc(Cl)cc1O [Embodiment 7, (R)-5-Chloro-2-(5-methyl-3-((1-methylpiperidin-3-yl)amino)-1,2,4-triazin-6-yl)phenol] | 1.2 nM |
| Cc1cc(C(F)(F)F)cc(O)c1-c1cnc(N[C@@H]2CCCN(C)C2)nn1 [Embodiment 10, (R)-3-methyl-2-(3-((1-methylpiperidin-3-yl)amino)-1,2,4-triazin-6-yl)-5-(trifluoromethyl)phenol] | 15.5 nM |
| Cc1cc(Cl)cc(O)c1-c1cnc(N[C@@H]2CCCN(C)C2)nn1 [Embodiment 11, (R)-5-chloro-3-methyl-2-(3-((1-methylpiperidin-3-yl)amino)-1,2,4-triazin-6-yl)phenol] | 4 nM |
| Cc1cc(N[C@@H]2CCCN(C)C2)nnc1-c1ncc(C(F)(F)F)cc1O [Embodiment 12, (R)-2-(4-methyl-6-((1-methylpiperidin-3-yl)amino)pyridazin-3-yl)-5-(trifluoromethyl)pyridin-3-ol] | 31.1 nM |
| CN1CCC[C@@H](Nc2nnc(-c3ccc(C(F)(F)F)cc3O)c3occc23)C1 [Embodiment 15, (R)-2-(4-((1-methylpiperidin-3-yl)amino)furo[2,3-d]pyridazin-7-yl)-5-(trifluoromethyl)phenol] | 28 nM |
| CN1CCC[C@@H](Nc2nnc(-c3ccc(C(F)(F)F)cc3O)c3c2CCO3)C1 [Embodiment 19, (R)-2-(4-((1-methylpiperidin-3-yl)amino)-2,3-dihydrofuro[2,3-d]pyridazin-7-yl)-5-(trifluoromethyl)phenol] | 85.2 nM |
| CN1CCC[C@@H](Nc2nnc(-c3ccc(C(F)(F)F)cc3O)c3[nH]ccc23)C1 [Embodiment 21] | 49.4 nM |
| Cc1cc(C)c(-c2cnc(N[C@@H]3CCCN(C(C)CO)C3)nn2)c(O)c1 (stereo partly drawn) [Embodiment 22, 2-(3-(((3R)-1-(1-hydroxypropyl-2-yl)piperidin-3-yl)amino)-1,2,4-triazin-6-yl)-3,5-dimethylphenol] | 24 nM |
| Cc1cc(C)c(-c2cnc(N[C@@H]3CCCN(CC(N)=O)C3)nn2)c(O)c1 [Embodiment 23, (R)-2-(3-((6-(2-hydroxy-4,6-dimethylphenyl)-1,2,4-triazin-3-yl)amino)piperidin-1-yl)acetamide] | 376 nM |
| Cc1cc(C)c(-c2cnc(N[C@@H]3CCCN(CC(=O)N[C@@H](C)CO)C3)nn2)c(O)c1 [Embodiment 24, 2-((R)-3-((6-(2-hydroxy-4,6-dimethylphenyl)-1,2,4-triazin-3-yl)amino)piperidin-1-yl)-N—((S)-1-hydroxypropyl-2-yl)acetamide] | 193 nM |
| Cc1cc(C)c(-c2cnc(N[C@@H]3CCCN(CC(=O)N[C@H]4C[C@@](C)(O)C4)C3)nn2)c(O)c1 [Embodiment 25] | 317 nM |
| Cc1cc(C)c(-c2nnc(N[C@@H]3CCCN(C)C3)nn2)c(O)c1 [Embodiment 26, (R)-3,5-Dimethyl-2-(6-((1-methylpiperidin-3)amino)-1,2,4,5-tetraazin-3)phenol] | 446 nM |
| Cc1ccc(-c2nnc(N[C@@H]3CCCN(C)C3)c3ccccc23)c(O)c1 [Embodiment 27, (R)-5-methyl-2-(4-((1-methylpiperidin-3-yl)amino)phthalazin-1-yl)phenol] | 1.4 nM |
| CN1CCC[C@@H](Nc2nnc(-c3ccc(Cl)cc3O)c3ccccc23)C1 [Embodiment 28, (R)-5-chloro-2-(4-((1-methylpiperidin-3-yl)amino)phthalazin-1-yl)phenol] | 1.1 nM |
| CN1CCC[C@@H](Nc2nnc(-c3ccc(C(F)(F)F)cc3O)c3cnccc23)C1 [Embodiment 30, (R)-2-(1-((1-methylpiperidin-3-yl)amino)pyrido[3,4-d]pyridazin-4-yl)-5-(trifluoromethyl)phenol] | 2.9 nM |
| CN1CCC[C@@H](Nc2nnc(-c3ccc(C(F)(F)F)cc3O)c3ccncc23)C1 [Embodiment 31, (R)-2-(4-((1-methylpiperidin-3-yl)amino)pyrido[3,4-d]pyridazin-1-yl)-5-(trifluoromethyl)phenol] | 2.2 nM |
| Cc1nc(N[C@@H]2CCCN(CC(N)=O)C2)nnc1-c1ccc(C(F)(F)F)cc1O [Embodiment 42, (R)-2-(3-((6-(2-hydroxy-4-(trifluoromethyl)phenyl)-5-methyl-1,2,4-triazin-3-yl)amino)piperidin-1-yl) acetamide] | 62.7 nM |
| Cc1nc(N[C@@H]2CCCN(C(C)CO)C2)nnc1-c1ncc(C(F)(F)F)cc1O (stereo partly drawn) [Embodiment 54, 2-(3-(((3R)-1-(1-hydroxypropyl-2-yl)piperidin-3-yl)amino)-5-methyl-1,2,4-triazin-6-yl)-5-(trifluoromethyl)pyridin-3-ol] | 46.4 nM |
| C[C@]1(O)C[C@@H](Nc2nnc(-c3ccc(C(F)(F)F)cc3O)c3ccccc23)C1 [Embodiment 65] | 10.4 nM |

Further lines, results first:

| IC50 | SMILES |
| --- | --- |
| 32.1 nM | Cc1cc(C)c(-c2cnc(NC3CCCN4CCCC34)nn2)c(O)c1 [Embodiment 4, (R)-3,5-dimethyl-2-(9-((1,2,3,5,6,7,8,8a-octahydroindozine-9-yl)amino)-1,2,4-triazin-6-yl)phenol] |
| 1.5 nM | Cc1nc(N[C@@H]2CCCN(C)C2)nnc1-c1ccc(C(F)(F)F)cc1O [Embodiment 8, (R)-2-(5-methyl-3-((1-methylpiperidin-3-yl)amino)-1,2,4-triazin-6-yl)-5-(trifluoromethyl)phenol] |
| 67 nM | Cc1nc(N[C@@H]2CCCN(C)C2)nnc1-c1ncc(C(F)(F)F)cc1O [Embodiment 9, (R)-2-(5-methyl-3-((1-methylpiperidin-3-yl)amino)-1,2,4-triazin-6-yl)-5-(trifluoromethyl)pyridin-3-ol] |
| 5.7 nM | CN1CCC[C@@H](Nc2nnc(-c3ccc(C(F)(F)F)cc3O)c3ccoc23)C1 [Embodiment 18, (R)-2-(7-((1-methylpiperidin-3-yl)amino)furo[2,3-d]pyridazin-4-yl)-5-(trifluoromethyl)phenol] |
| 21.3 nM | CN1CCC[C@@H](Nc2nnc(-c3ccc(C(F)(F)F)cc3O)c3cc[nH]c23)C1 [Embodiment 20] |
| 5.1 nM | Cc1cc(Cl)cc(O)c1-c1nnc(N[C@@H]2CCCN(C)C2)c2ccccc12 [Embodiment 29] |
| 54.2 nM | Cc1nc(N[C@@H]2CCC[C@@H](O)C2)nnc1-c1ccc(C(F)(F)F)cc1O [Embodiment 36, 2-(3-(((1R,3R)-3-hydroxycyclohexyl)amino)-5-methyl-1,2,4-triazin-6-yl)-5-(trifluoromethyl)phenol] |
| 92.8 nM | Oc1cc(C(F)(F)F)ccc1-c1nnc(N[C@@H]2CCCC[C@H]2O)c2cccnc12 [Embodiment 71] |
| 11.3 nM | C[C@]1(O)C[C@@H](Nc2nnc(-c3ccc(C(F)(F)F)cc3O)c3ncccc23)C1 [Embodiment 76, 2-(5-(((cis)-3-hydroxy-3-methylcyclobutyl)amino)pyrido[2,3-d]pyridazin-8-yl)-5-(trifluoromethyl)phenol] |
| 19.4 nM | C[C@]1(O)C[C@@H](Nc2nnc(-c3ccc(C(F)(F)F)cc3O)c3ccncc23)C1 [Embodiment 77, 2-(4-(((cis)-3-hydroxy-3-methylcyclobutyl)amino)pyrido[3,4-d]pyridazin-1-yl)-5-(trifluoromethyl)phenol] |
